Source: patent US8263040B2, “Metal chelates having a perfluorinated PEG radical, processes for their preparation, and their use” (Bayer Schering Pharma AG, priority 2006, dated 2012)

What was measured:
[1] = Relaxivity: T1 and T2 relaxation times of water and plasma (bovine), NMR pulse spectrometer (Minispec PC 20); format: physicochemical; conditions: for Relaxivity R1 / Relaxivity R2: 40° C., 0.47 T
Procedure: The T1 and T2 relaxation times of water and plasma (bovine) having increasing concentrations of the substance from Example 2c) contained therein were determined at 40° C. using an NMR pulse spectrometer (Minispec PC 20) at 0.47 T (Table 1).
From the R1 relaxivities in water at high and low concentrations, a critical micelle formation concentration (CMC) of 0.02 mmol of Gd/I can be determined.

[2] = Plasma kinetics after intravenous administration in rats (ICP-AES, WinNonlin); format: in vivo; conditions: i.v., 50 μmol of total gadolinium/kg
Procedure: After intravenous administration of 50 μmol of total gadolinium/kg of body weight of the substances from Examples 2c), 21 c) and 22 c) in rats (n=3), blood samples were taken at different points in time (up to 24 h p.i.) by means of a catheter in the common carotid artery, and the metal content was determined by means of atomic emission spectrometry (ICP-AES) and converted to plasma values by means of a conversion factor (0.625). The pharmacokinetic parameters (Table 4) were calculated from the plasma concentrations by means of special software (WinNonlin).

[3] = tested on: mice; assay: Acute toxicity after single intravenous administration in mice (exploratory); format: in vivo; conditions: injection rate 2 ml/min, observation period 7 days
Procedure: After intravenous administration of the substances of Examples 2c), 21 c) and 22 c) in mice (n=3; injection rate: 2 ml/min), the acute systemic tolerability (LD50) was determined in an exploratory manner. In each case, a number of doses were investigated using an observation period of 7 days. The average acute toxicities to be expected were 2.5 mmol of Gd/kg of body weight for the substance from Example 2c) and >10.0 mmol of Gd/kg of body weight for the substances from Examples 21c) and 22 c).

[4] = tested on: popliteal lymph nodes; assay: MRT demonstration of lymph nodes after intravenous administration in rats; format: in vivo; conditions: i.v., 50 μmol of Gd/kg, 1.5 T, early points in time (up to 60 min p.i.)
Description: The figures show exemplary MR shots of popliteal lymph nodes at different points in time after intravenous administration of 50 μmol of Gd/kg of body weight of the substance from Example 2c) in FIG. 1, of the substance from Example 21 c) in FIG. 2, and of the substance from Example 22 c) in FIG. 3 in rats.

[5] = tested on: histamine; assay: Release of histamine after single intravenous administration in rats (plasma histamine, ELISA); format: in vivo; conditions: for Histamine, baseline: before contrast agent administration; for Histamine, 10 min p.i. / Histamine, 30 min p.i. / Histamine, 60 min p.i.: i.v.
Procedure: After intravenous administration of the substances from Examples 2c) and 22 c) in rats (n=3), the release of histamine was determined at different points in time. For this, blood was taken from the carotid artery before and 10, 30 and 60 minutes after contrast agent administration, and the histamine contained in the plasma was determined by means of an ELISA system. The histamine values measured can be seen in Table 2. The histamine blank values in the conscious rats were in the normal range known from the literature.

[6] = Excretion after intravenous administration in rats (ICP-AES); format: in vivo; conditions: i.v., 50 μmol of total gadolinium/kg; for Gd content, rest of body: 14 days after administration; for Gd content, faeces / Gd content, urine: up to 14 days after administration
Procedure: After intravenous administration of 50 μmol of total gadolinium/kg of body weight of substances from Examples 2c), 21 c) and 22 c) in rats (n=3), the metal content was determined fractionally up to 14 days after administration by means of atomic emission spectrometry (ICP-AES) in the excretion medium urine and faeces, and in the body (rest of body) (Table 3).

[7] = in vivo; cited from earlier work
[8] = plasma (bovine), Gd concentration 0.271-1.086 mmol/l
[9] = water, Gd concentration 0.000-0.009 mmol/l
[10] = water, Gd concentration 0.020-1.099 mmol/l

| Substance | Vc [2] | Vd ss [2] | α-t½ [2] | β-t½ [2] | signal in the functional lymph node tissue (T1-weighted MR shots) [4] | Histamine, baseline [5] | Histamine, 10 min p.i. [5] | Histamine, 30 min p.i. [5] | Histamine, 60 min p.i. [5] | Gd content, rest of body [6] | Gd content, faeces [6] | Gd content, urine [6] | further results |
| --- | --- | --- | --- | --- | --- | --- | --- | --- | --- | --- | --- | --- | --- |
| 1,4,7-Tris(carboxylatomethyl)-10-[(3-aza-4-oxo-5-methyl-5-yl)-acid N-(1H,1H,2H,2H,4H,4H,-3,6,9,12-tetraoxaperfluorohexadecyl)-N-(2-methoxyethyl)amide]-1,4,7,10-tetraazacyclododecane, Gd complex [Example 2c] | 0.05 ± 0.00 L/kg | 0.08 ± 0.01 L/kg | 18.7 ± 2.0 min | 72 ± 12 min | strong signal increase | 3 ± 2 ng/mL | 4 ± 4 ng/mL | 5 ± 3 ng/mL | 3 ± 2 ng/mL | 0.2 ± 0.3 % dose | 92.9 ± 1.5 % dose | 0.8 ± 0.2 % dose | critical micelle formation concentration (CMC) ([1]; from the R1 relaxivities in water at high and low concentrations): 0.02 mmol of Gd/I; protein bond (relaxivity in plasma greater than in water) ([1]; plasma (bovine) versus water): indicates a protein bond; Relaxivity R1 [1, 8]: 26.0 ± 0.5 L/mmol/s; Relaxivity R2 [1, 8]: 35.1 ± 0.3 L/mmol/s; Relaxivity R1 [1, 9]: 5.3 ± 0.4 L/mmol/s; Relaxivity R2 [1, 9]: 5.3 ± 1.2 L/mmol/s; Relaxivity R1 [1, 10]: 17.8 ± 0.1 L/mmol/s; Relaxivity R2 [1, 10]: 16.3 ± 0.2 L/mmol/s; acute systemic tolerability (LD50) [3]: 2.5 mmol of Gd/kg of body weight |
| 1,4,7-Tris(carboxylatomethyl)-10-[(3-aza-4-oxo-5-methyl-5-yl)acid N-(1H,1H,2H,2H,4H,4H,-3,6,9,12-tetraoxaperfluorohexadecyl)-N-{2-[2-(2-methoxyethoxy)ethoxy]-ethyl}amide]1,4,7,10-tetraazacyclododecane, Gd complex [Example 22c] | 0.04 ± 0.00 L/kg | 0.06 ± 0.00 L/kg | 23.6 ± 0.6 min | 108 ± 18 min | strong signal increase | 3 ± 1 ng/mL | 7 ± 3 ng/mL | 4 ± 1 ng/mL | 4 ± 1 ng/mL | 0.0 ± 0.0 % dose | 83.4 ± 2.6 % dose | 1.8 ± 0.1 % dose |  |
| 1,4,7-Tris(carboxylatomethyl)-10-{(3-aza-4-oxo-5-methyl-5-yl)-acid-N-(1H,1H,2H,2H,4H,4H,-3,6,9,12-tetraoxaperfluorohexadecyl)-N-[2-(2-methoxyethoxy)ethyl]amide}-1,4,7,10-tetraazacyclododecane, Gd complex [Example 21c] | 0.04 ± 0.00 L/kg | 0.05 ± 0.00 L/kg | 28.4 ± 1.5 min | 78 ± 12 min | strong signal increase |  |  |  |  | 0.0 ± 0.0 % dose | 84.9 ± 0.7 % dose | 3.8 ± 0.1 % dose |  |
| Mn-TPPS |  |  |  |  |  |  |  |  |  |  |  |  | LD50 [7]: 0.5 mmol/kg; dose at which an action commences [7]: 0.2 mmol/kg |
